Experimental data: patent US20240116985A1, “STAPLED PEPTIDES AND METHODS THEREOF” (priority 2020, published 2024)
Read-outs that look alike come from different tables or passages of the source.

Assays:
[1] = molecular target: T1, full-length beta-Catenin (Uniprot ID P35222) (Homo sapiens, UniProt P35222); assay: Fluorescence polarization IC50 (beta-catenin / 5FAM-TCF4 10-53 competition); assay type: binding
T1 construct: 10 nM full-length beta-Catenin (Uniprot ID P35222)
T1 sequence (P35222 1-781): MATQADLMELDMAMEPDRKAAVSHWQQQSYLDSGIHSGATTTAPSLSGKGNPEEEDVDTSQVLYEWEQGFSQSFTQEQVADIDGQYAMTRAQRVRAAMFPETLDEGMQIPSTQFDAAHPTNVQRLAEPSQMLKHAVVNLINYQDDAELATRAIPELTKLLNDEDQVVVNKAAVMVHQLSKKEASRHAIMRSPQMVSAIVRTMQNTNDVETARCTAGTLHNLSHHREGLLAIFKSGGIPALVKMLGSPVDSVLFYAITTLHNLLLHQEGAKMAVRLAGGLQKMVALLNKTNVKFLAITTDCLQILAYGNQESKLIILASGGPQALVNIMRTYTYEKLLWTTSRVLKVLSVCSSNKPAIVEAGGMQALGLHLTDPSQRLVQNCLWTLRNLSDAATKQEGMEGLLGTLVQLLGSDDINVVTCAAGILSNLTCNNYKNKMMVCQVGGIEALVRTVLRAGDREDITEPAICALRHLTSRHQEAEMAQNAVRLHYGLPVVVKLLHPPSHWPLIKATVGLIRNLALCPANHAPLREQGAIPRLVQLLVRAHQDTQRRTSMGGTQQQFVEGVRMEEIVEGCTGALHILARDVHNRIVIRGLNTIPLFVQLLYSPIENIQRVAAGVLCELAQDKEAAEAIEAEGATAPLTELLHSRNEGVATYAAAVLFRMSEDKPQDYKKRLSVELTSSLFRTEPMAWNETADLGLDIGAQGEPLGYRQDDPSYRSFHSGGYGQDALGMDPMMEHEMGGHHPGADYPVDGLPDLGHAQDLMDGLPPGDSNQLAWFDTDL

CHI Log D procedure = assay type: physicochemical; settings: for CHI Log D: pH 7.4; for chromatographic logD: pH 7.4, CHI Log D
[2] = fluorescence polarization, read-out: beta-Catenin FP IC50

| SMILES | IC50 [1, 2] | IC50 ([1]; read-out: FP EC50) | CHI Log D (CHI Log D procedure) | chromatographic logD (CHI Log D procedure) |
| --- | --- | --- | --- | --- |
| CC(=O)N1CCC[C@]12CC=CCCCC1(CCCC=CCCCCOC(=O)N3CC[C@@](C(=O)N[C@@H](Cc4ccccc4)C(=O)N[C@@H](Cc4csc5ccccc45)C(=O)N[C@@H](CCC(N)=O)C(N)=O)(C3)NC(=O)[C@H](CC(N)=O)NC(=O)[C@H](Cc3ccccc3)NC(=O)[C@H](C)NC(=O)[C@H](C)NC(=O)[C@H](CCC(=O)O)NC(=O)[C@H](CC(=O)O)NC1=O)NC(=O)[C@H](C)NC(=O)[C@H](CC(=O)O)NC2=O (stereo partly drawn) [I-463, Ac-PL3-Asp-Ala-B5-Asp-Glu-Ala-Ala-Phe-Asn-PyrS3-Phe-BztA-Gln-NH2] | 92 nM | 92 nM | 1.785 |  |
| CC(=O)N1CCC[C@]12CC=CCCCC1(CCCC=CCCCCOC(=O)N3CC[C@@](C(=O)N[C@@H](Cc4ccccc4)C(=O)N[C@@H](Cc4csc5ccccc45)C(=O)N[C@@H](CCC(N)=O)C(N)=O)(C3)NC(=O)[C@H](CC(N)=O)NC(=O)[C@H](Cc3ccccc3)NC(=O)[C@H](C)NC(=O)[C@H](C)NC(=O)[C@H](CCC(=O)O)NC(=O)[C@H](CC(=O)O)NC1=O)NC(=O)[C@H](C)NC(=O)[C@H](CC(=O)O)NC2=O (stereo partly drawn) [I-464, Ac-PL3-Asp-Ala-B5-Asp-Glu-Ala-Ala-Phe-Asn-PyrS3-Phe-BztA-Gln-NH2] | 57 nM | 57 nM | 1.831 |  |
| CC[C@H](C)[C@@H]1NC(=O)[C@H](CC(=O)O)NC(=O)[C@]2(CC=CCCCC3(CCCC=CCCCCCC[C@@](C)(C(=O)N[C@@H](Cc4ccccc4)C(=O)N[C@@H](Cc4csc5ccccc45)C(=O)N[C@@H](Cc4c[nH]cn4)C(N)=O)NC(=O)[C@H](CC(N)=O)NC(=O)[C@H](Cc4ccccc4)NC(=O)[C@H](C)NC(=O)[C@H](C)NC(=O)[C@H](CC(=O)O)NC(=O)[C@H](CC(=O)O)NC3=O)NC1=O)CCCN2C(C)=O (stereo partly drawn) [I-469, Ac-PL3-Asp-Ile-B5-Asp-Asp-Ala-Ala-Phe-Asn-S8-Phe-BztA-His-NH2] | 27 nM | 27 nM | 2.354 |  |
| CC[C@H](C)[C@@H]1NC(=O)[C@H](CC(=O)O)NC(=O)[C@]2(CC=CCCCC3(CCCC=CCCCCCC[C@@](C)(C(=O)N[C@@H](Cc4ccccc4)C(=O)N[C@@H](Cc4csc5ccccc45)C(=O)N[C@@H](CCN)C(N)=O)NC(=O)[C@H](CCC(N)=O)NC(=O)[C@H](Cc4ccccc4)NC(=O)[C@H](C)NC(=O)[C@H](C)NC(=O)[C@H](CC(=O)O)NC(=O)[C@H](CC(=O)O)NC3=O)NC1=O)CCCN2C(C)=O (stereo partly drawn) [I-482, Ac-PL3-Asp-Ile-B5-Asp-Asp-Ala-Ala-Phe-Gln-S8-Phe-BztA-Dab-NH2] | 118 nM |  |  | 2.48 |
| CC[C@H](C)[C@@H]1NC(=O)[C@H](CC(=O)O)NC(=O)[C@]2(CC=CCCCC3(CCCC=CCCCCCC[C@@](C)(C(=O)N[C@@H](Cc4ccccc4)C(=O)N[C@@H](Cc4csc5ccccc45)C(=O)N[C@@H](CC(N)=O)C(N)=O)NC(=O)[C@H](CCC(N)=O)NC(=O)[C@H](Cc4ccccc4)NC(=O)[C@H](C)NC(=O)[C@H](C)NC(=O)[C@H](CCC(=O)O)NC(=O)[C@H](CC(=O)O)NC3=O)NC1=O)CCCN2C(C)=O (stereo partly drawn) [I-495, Ac-PL3-Asp-Ile-B5-Asp-Glu-Ala-Ala-Phe-Gln-S8-Phe-BztA-Asn-NH2] | 181 nM |  |  | 2.35 |
| COc1ccccc1C[C@H](NC(=O)[C@]1(C)CCCCCCC=CCCCC2(CCCC=CC[C@]3(CCCN3C(C)=O)C(=O)N[C@@H](CC(=O)O)C(=O)N[C@@H](C)C(=O)N2)C(=O)N[C@@H](CC(=O)O)C(=O)N[C@@H](CCC(=O)O)C(=O)N[C@@H](C)C(=O)N[C@@H](C)C(=O)N[C@@H](Cc2ccccc2)C(=O)N[C@@H](CCC(N)=O)C(=O)N1)C(=O)N[C@@H](Cc1csc2ccccc12)C(=O)N[C@@H](CCC(N)=O)C(N)=O (stereo partly drawn) [I-525, Ac-PL3-Asp-Ala-B5-Asp-Glu-Ala-Ala-Phe-Gln-S8-2OMeF-BztA-Gln-NH2] | 196 nM | 196 nM | 2.019 |  |
| COc1ccccc1C[C@H](NC(=O)[C@]1(C)CCCCCCC=CCCCC2(CCCC=CC[C@]3(CCCN3C(C)=O)C(=O)N[C@@H](CC(=O)O)C(=O)N[C@@H](C)C(=O)N2)C(=O)N[C@@H](CC(=O)O)C(=O)N[C@@H](CCC(=O)O)C(=O)N[C@@H](C)C(=O)N[C@@H](C)C(=O)N[C@@H](Cc2ccccc2)C(=O)N[C@@H](CCC(N)=O)C(=O)N1)C(=O)N[C@@H](Cc1csc2ccccc12)C(=O)N[C@@H](CCC(N)=O)C(N)=O (stereo partly drawn) [I-526, Ac-PL3-Asp-Ala-B5-Asp-Glu-Ala-Ala-Phe-Gln-S8-2OMeF-BztA-Gln-NH2] | 56 nM | 56 nM | 2.049 |  |
| CC(=O)N1CCC[C@]12CC=CCCCC1(CCCC=CCCCCCC[C@@](C)(C(=O)N[C@@H](Cc3ccccc3)C(=O)N[C@@H](Cc3csc4ccccc34)C(=O)N[C@@H](CCC(N)=O)C(N)=O)NC(=O)[C@H](CC(N)=O)NC(=O)[C@H](Cc3ccccc3)NC(=O)[C@H](C)NC(=O)[C@H](C)NC(=O)[C@H](CC(=O)O)NC(=O)[C@H](CC(=O)O)NC1=O)NC(=O)[C@H](CCC(C)C)NC(=O)[C@H](CC(=O)O)NC2=O (stereo partly drawn) [I-547, Ac-PL3-Asp-hLeu-B5-Asp-Asp-Ala-Ala-Phe-Asn-S8-Phe-BztA-Gln-NH2] | 43 nM | 43 nM | 2.45 |  |

Other lines, results leading:

| IC50 [1, 2] | IC50 ([1]; read-out: FP EC50) | CHI Log D (CHI Log D procedure) | chromatographic logD (CHI Log D procedure) | SMILES |
| --- | --- | --- | --- | --- |
| 98 nM | 98 nM | 2.376 |  | CC[C@H](C)[C@@H]1NC(=O)[C@H](CC(=O)O)NC(=O)[C@]2(CC=CCCCC3(CCCC=CCCCCCC[C@@](C)(C(=O)N[C@@H](Cc4ccccc4OC)C(=O)N[C@@H](Cc4csc5ccccc45)C(=O)N[C@@H](CCC(N)=O)C(N)=O)NC(=O)[C@H](CCC(N)=O)NC(=O)[C@H](Cc4ccccc4)NC(=O)[C@H](C)NC(=O)[C@H](C)NC(=O)[C@H](CCC(=O)O)NC(=O)[C@H](CC(=O)O)NC3=O)NC1=O)CCCN2C(C)=O (stereo partly drawn) [I-527, Ac-PL3-Asp-Ile-B5-Asp-Glu-Ala-Ala-Phe-Gln-S8-2OMeF-BztA-Gln-NH2] |
| 63 nM | 63 nM | 2.395 |  | CC[C@H](C)[C@@H]1NC(=O)[C@H](CC(=O)O)NC(=O)[C@]2(CC=CCCCC3(CCCC=CCCCCCC[C@@](C)(C(=O)N[C@@H](Cc4ccccc4OC)C(=O)N[C@@H](Cc4csc5ccccc45)C(=O)N[C@@H](CCC(N)=O)C(N)=O)NC(=O)[C@H](CCC(N)=O)NC(=O)[C@H](Cc4ccccc4)NC(=O)[C@H](C)NC(=O)[C@H](C)NC(=O)[C@H](CCC(=O)O)NC(=O)[C@H](CC(=O)O)NC3=O)NC1=O)CCCN2C(C)=O (stereo partly drawn) [I-528, Ac-PL3-Asp-Ile-B5-Asp-Glu-Ala-Ala-Phe-Gln-S8-2OMeF-BztA-Gln-NH2] |
| 71 nM | 71 nM | 2.291 |  | CC[C@H](C)[C@@H]1NC(=O)[C@H](CC(=O)O)NC(=O)[C@]2(CC=CCCCC3(CCCC=CCCCCCC[C@@](C)(C(=O)N[C@@H](Cc4ccccc4OC)C(=O)N[C@@H](Cc4csc5ccccc45)C(=O)N[C@@H](CCC(N)=O)C(N)=O)NC(=O)[C@H](CC(N)=O)NC(=O)[C@H](Cc4ccccc4)NC(=O)[C@H](C)NC(=O)[C@H](C)NC(=O)[C@H](CC(=O)O)NC(=O)[C@H](CC(=O)O)NC3=O)NC1=O)CCCN2C(C)=O (stereo partly drawn) [I-549, Ac-PL3-Asp-Ile-B5-Asp-Asp-Ala-Ala-Phe-Asn-S8-2OMeF-BztA-Gln-NH2] |
